Assay results from patent publication US12060349B2, “Glucosylceramide synthase inhibitors” (Genzyme Corporation, priority 2012, dated 2024).
Read-outs that look alike come from different tables or passages of the source.

What was measured:
[1] = test system: B16 mouse melanoma cells; test: cell viability in the B16 cell-based assay (Viability, B16 IC50); conditions: Mus musculus
Method in brief: (§1)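 Cell death was scored within the cell-based GM3 experiment for each line. The viability value is the concentration producing 50% death, and numbers exceeding 10 signify no cytotoxicity.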

[2] = test system: GM3 expression on the cell surface, C32 human melanoma cells; test: cell based phenotypic assay, cell surface GM3 by antibody mediated immunofluorescence, C32 (GM3 C32 IC50); conditions: 50% inhibition of GM3 expression on the cell surface
Method in brief: (§2)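 Two melanoma lines, mouse B16 and human C32, were treated and surface GM3 quantified by antibody immunofluorescence for IC50. A parallel viability readout gives the concentration killing 50% of cells, with values over 10 indicating no cell death.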

[3] = test system: C32 human melanoma cells; test: cell viability in the C32 cell-based assay (Viability, C32 IC50); conditions: concentration causing 50% cell death, values greater than 10 represent a lack of cell death
Method in brief: as §1

[4] = test system: GM3 expression on the cell surface, B16 mouse melanoma cells; test: cell based phenotypic assay, cell surface GM3 by antibody mediated immunofluorescence, B16 (GM3 B16 IC50); conditions: 50% inhibition of GM3 expression on the cell surface
Method in brief: as §2

[5] = biological target: T1, glucosylceramide synthase (Homo sapiens, UniProt Q16739); test: microsomal assay measuring conversion of ceramide to glucosylceramide by HPLC (GCS IC50); assay type: biochemical; conditions: concentration causing 50% inhibition of glucosylceramide synthase activity
T1 construct: Microsomes were isolated from A375 human melanoma cells; endogenous in cells; host or cells: A375 human melanoma cells (microsomal fraction, 100,000 g pellet)
T1 sequence (Q16739 1-394): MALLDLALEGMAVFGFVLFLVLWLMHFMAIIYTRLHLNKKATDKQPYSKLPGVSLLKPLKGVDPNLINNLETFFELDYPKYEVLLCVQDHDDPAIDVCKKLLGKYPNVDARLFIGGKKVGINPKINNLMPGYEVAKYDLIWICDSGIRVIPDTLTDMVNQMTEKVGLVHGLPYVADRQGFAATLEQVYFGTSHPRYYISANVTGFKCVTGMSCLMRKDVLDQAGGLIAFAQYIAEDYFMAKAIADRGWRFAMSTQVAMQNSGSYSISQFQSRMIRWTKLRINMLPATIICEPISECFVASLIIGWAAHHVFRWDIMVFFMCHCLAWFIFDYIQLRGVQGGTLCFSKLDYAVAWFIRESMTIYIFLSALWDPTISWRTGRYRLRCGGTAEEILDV
Method in brief: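 IC50 is the compound concentration halving glucosylceramide synthase activity. Activity was measured in microsomes, with HPLC quantifying glucosylceramide formed from ceramide.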

[6] = B16, B16 cells, concentration causing 50% cell death, values greater than 10 represent a lack of cell death, read-out: Viability, B16 IC50
[7] = Homo sapiens, C32 human melanoma cells, read-out: GM3 C32 IC50
[8] = Homo sapiens, C32, C32 cells, read-out: Viability, C32 IC50
[9] = Mus musculus, B16 mouse melanoma cells, read-out: GM3 B16 IC50
[10] = B16, read-out: Viability, B16 IC50
[11] = Homo sapiens, read-out: GM3 C32 IC50, C32 human melanoma cells
[12] = Homo sapiens, C32, read-out: Viability, C32 IC50, C32 cells
[13] = Mus musculus, read-out: GM3 B16 IC50, B16 mouse melanoma cells

Row | IC50 ([2]; C32 human melanoma cells, read-out: GM3 C32 IC50) [nM] | IC50 ([4]; B16 mouse melanoma cells, read-out: GM3 B16 IC50) [nM] | SMILES | IC50 [1, 6] [nM] | IC50 [2, 7] [nM] | IC50 [3, 8] [nM] | IC50 [4, 9] [nM] | IC50 [5] [nM] | IC50 [1, 10] [nM] | IC50 [2, 11] [nM] | IC50 [3, 12] [nM] | IC50 [4, 13] [nM] | IC50 ([3]; C32 cells, read-out: Viability, C32 IC50) [nM]
1 |  |  | CC(C)(NC(=O)NC1(C)CCN2CCC1CC2)c1cccc(Oc2cccc(C(=O)N3CCOCC3)c2)c1 (centres unmarked) [Example 276, 1-(4-Methyl-1-azabicyclo[3.2.2]nonan-4-yl)-3-(2-(3-(3-(morpholine-4-carbonyl)phenoxy)phenyl)propan-2-yl)urea] | ≥ 10000 | 29.6 | 3160 | 1530 | 20 |  |  |  |  | 
2 |  |  | CCC1(NC(=O)N2CCN(c3cccc(-c4ccc(F)cc4)c3)CC2)CN2CCC1CC2 (centres unmarked) [Example 23, N-(3-Ethylquinuclidin-3-yl)-4-(4′-fluoro-[1,1′-biphenyl]-3-yl)piperazine-1-carboxamide] | 7070 | 90.9 | 3160 | 351 | 1580 |  |  |  |  | 
3 |  |  | CCC1(NC(=O)NC(C)(C)c2ccc(-c3ccc(S(=O)(=O)CC4CC4)cc3)cc2)CN2CCC1CC2 (centres unmarked) [Example 239, 1-(2-(4′-((Cyclopropylmethyl)sulfonyl)-[1,1′-biphenyl]-4-yl)propan-2-yl)-3-(3-ethylquinuclidin-3-yl)urea] | ≥ 10000 | 3.21 | 1000 | 28.5 | 9.87 |  |  |  |  | 
4 |  |  | CC(C)(NC(=O)OC1CN2CCC1CC2)c1ccc(C(=O)N2CCN(c3ccccc3)CC2)cc1 (centres unmarked) [Example 304, Quinuclidin-3-yl 2-(4-(4-phenylpiperazine-1-carbonyl)phenyl)propan-2-ylcarbamate] |  |  |  |  | 1730 | ≥ 10000 | 95.9 | ≥ 10000 | 355 | 
5 |  |  | CC1(NC(=O)C2CCN(c3ccnc(-c4ccc(F)cc4)c3)CC2)CCN2CCC1CC2 (centres unmarked) [Example 108, 1-(2-(4-Fluorophenyl)pyridin-4-yl)-N-(4-methyl-1-azabicyclo[3.2.2]nonan-4-yl)piperidine-4-carboxamide] | 5650 | 54.1 | 3160 | 1080 | 80.8 |  |  |  |  | 
6 |  |  | COCc1ccc(-c2nc(N3CCC(C(=O)NC4(C)CCN5CCC4CC5)CC3)ncc2F)cc1 (centres unmarked) [Example 60, 1-(5-Fluoro-4-(4-(methoxymethyl)phenyl)pyrimidin-2-yl)-N-(4-methyl-1-azabicyclo[3.2.2]nonan-4-yl)piperidine-4-carboxamide] | 3500 | 0.1 | 46.4 | 15.5 | 1.68 |  |  |  |  | 
7 |  |  | COCc1ccc(-c2ccnc(N3CCC(F)(C(=O)NC4(C)CN5CCC4CC5)CC3)n2)cc1 (centres unmarked) [Example 80, 4-Fluoro-1-(4-(4-(methoxymethyl)phenyl)pyrimidin-2-yl)-N-(3-methylquinuclidin-3-yl)piperidine-4-carboxamide] | ≥ 10000 | 0.525 | 215 | 68.5 | 4 |  |  |  |  | 
8 |  |  | CN(C)C(=O)c1ccc(-c2ccc(C(C)(C)NC(=O)NC3(C)CN4CCC3CC4)cc2)cc1 (centres unmarked) [Example 258, N,N-Dimethyl-4′-(2-(3-(3-methylquinuclidin-3-yl)ureido)propan-2-yl)biphenyl-4-carboxamide] | ≥ 10000 | 49 | ≥ 10000 | 2340 | 281 |  |  |  |  | 
9 |  |  | CC(C)(NC(=O)NC1(C)CCN2CCC1CC2)c1ccc(Oc2ccc(C(=O)N3CCC(F)(F)CC3)cc2)cc1 (centres unmarked) [Example 302, 1-(2-(4-(4-(4,4-Difluoropiperidine-1-carbonyl)phenoxy)phenyl)propan-2-yl)-3-(4-methyl-1-azabicyclo[3.2.2]nonan-4-yl)urea] | ≥ 10000 | 1.47 | 1000 | 31.7 | 4.22 |  |  |  |  | 
10 |  |  | CNC(=O)c1ccc(Oc2ccc(C(C)(C)NC(=O)OC3CN4CCC3CC4)cc2)cc1 (centres unmarked) [Example 291, Quinuclidin-3-yl 2-(4-(4-(methylcarbamoyl)phenoxy)phenyl)propan-2-ylcarbamate] |  |  |  |  | 1910 | ≥ 10000 | 90.2 | 3160 | 2310 | 
11 |  |  | O=C(N1CCN(c2cccc(-c3ccccc3)c2)CC1)N1CCN2CCC1CC2 [Example 17, (4-([1,1′-Biphenyl]-3-yl)piperazin-1-yl)(1,4-diazabicyclo[3.2.2]nonan-4-yl)methanone] | ≥ 10000 | 6360 | ≥ 10000 | 6310 | 12200 |  |  |  |  | 
12 |  |  | COCCCOc1ccc(-c2nc(N3CC(C(=O)NC4(C)CCN5CCC4CC5)C3)ncc2F)cc1 (centres unmarked) [Example 111, 1-(5-Fluoro-4-(4-(3-methoxypropoxy)phenyl)pyrimidin-2-yl)-N-(4-methyl-1-azabicyclo[3.2.2]nonan-4-yl)azetidine-3-carboxamide] | 3650 | 0.19 | 1000 | 119 | 2 |  |  |  |  | 
13 |  |  | CCC1(NC(=O)NC(C)(C)c2ccc(-c3ccc(S(=O)(=O)CC4(COC)CC4)cc3)cc2)CN2CCC1CC2 (centres unmarked) [Example 250, 1-(3-Ethylquinuclidin-3-yl)-3-(2-(4′-(((1-(methoxymethyl)cyclopropyl)methyl)sulfonyl)-[1,1′-biphenyl]-4-yl)propan-2-yl)urea] | ≥ 10000 | 4.41 | 1000 | 84.5 | 20.1 |  |  |  |  | 
14 |  |  | CC1(NC(=O)C2CN(c3ncc(F)c(-c4ccc(F)cc4)n3)C2)CCN2CCC1CC2 (centres unmarked) [Example 112, 1-(5-Fluoro-4-(4-fluorophenyl)pyrimidin-2-yl)-N-(4-methyl-1-azabicyclo[3.2.2]nonan-4-yl)azetidine-3-carboxamide] | 7240 | 0.238 | 316 | 122 | 7.37 |  |  |  |  | 
15 |  |  | COCCOc1ccc(-c2ccc(C3(NC(=O)NC4CN5CCC4CC5)CC3)cc2)cc1 (centres unmarked) [Example 162, 1-(1-(4′-(2-Methoxyethoxy)-[1,1′-biphenyl]-4-yl)cyclopropyl)-3-(quinuclidin-3-yl)urea] | 3540 | 2.21 | 1000 | 72.7 | 28.1 |  |  |  |  | 
16 | 50 | 2190 | CC1(NC(=O)C2CCN(c3cncc(-c4ccc(F)cc4)n3)CC2)CCN2CCC1CC2 (single isomer, unassigned) [Example 47, 1-(6-(4-Fluorophenyl)pyrazin-2-yl)-N-(4-methyl-1-azabicyclo[3.2.2]nonan-4-yl)piperidine-4-carboxamide] | 7830 |  |  |  | 258 |  |  |  |  | 3160
17 |  |  | CC(C)(NC(=O)OC1CCN2CCC1CC2)c1ccc(-c2ccc(C(=O)N3CCOCC3)cc2)cc1 (centres unmarked) [Example 266, 1-Azabicyclo[3.2.2]nonan-4-yl 2-(4′-(morpholine-4-carbonyl)biphenyl-4-yl)propan-2-ylcarbamate] | ≥ 10000 | 22.7 | 1000 | 284 | 399 |  |  |  |  | 
18 |  |  | CC(C)(NC(=O)OC1CN2CCC1CC2)c1ccc(-c2ccc(CN3CCOCC3)cc2)cc1 (centres unmarked) [Example 229, Quinuclidin-3-yl (2-(4′-(morpholinomethyl)-[1,1′-biphenyl]-4-yl)propan-2-yl)carbamate] |  |  |  |  | 158 | ≥ 10000 | 53.2 | ≥ 10000 | 524 | 
19 |  |  | O=C(NC1CN2CCC1CC2)N1CCN(c2ccc(-c3ccccc3)cc2)CC1 (centres unmarked) [Example 2, 4-([1,1′-Biphenyl]-4-yl)-N-(quinuclidin-3-yl)piperazine-1-carboxamide] | 5280 | 667 | 7580 | 1600 | 6930 |  |  |  |  | 
